Test results published in patent US20260324636A1, “COMPOSITION FOR PROVIDING PLANT WITH STRESS RESISTANCE” (KIRIN HOLDINGS KABUSHIKI KAISHA, priority 2022, published 2026).

System: ZAT12
Assay: Histone H4 acetylation level of ZAT12 by chromatin immunoprecipitation and quantitative PCR, Example 14
Format: in vivo, Arabidopsis thaliana (Col-0)
Conditions: Arabidopsis thaliana; 0.4 mM in medium, 2 hours after application; read-out: histone H4 acetylation level of ZAT12, increase vs group not subjected to the treatment
Protocol: A wild-type Arabidopsis thaliana strain (accession: Col-0) was used as an experimental material. Seeds were purchased from Inplanta Innovations Inc.
A liquid medium containing a ½ Murashige and Skoog Plant Salt Mixture (Nacalai) and 1 (w/v) % sucrose (FUJIFILM Wako) was used as a growth medium.
Arabidopsis thaliana seeds were sterilized with the use of a Kitchen Haiter® liquid (Kao Corporation) diluted to one-half concentration with distilled water for 3 minutes, washed 3 times with sterile distilled water, and then incubated at 4° C. overnight. The growth medium (100 ml) was prepared in a 300-ml flask, the incubated seeds were seeded therein, the flask was transferred to an incubator (TOMY), and shake culture was then initiated. The incubator was maintained at a temperature of 22° C. for a daily cycle of 16 hours light and 8 hours darkness, and the rotation speed of the shaker was set at 180 rpm.
A stock solution of N-acetylglutamic acid (Tokyo Chemical Industry Co., Ltd.) was added to Arabidopsis thaliana 7 days after seeding to the final concentration of 0 mM and 0.4 mM in the media, followed by incubation for 2 hours. Sample fixation following incubation was performed in accordance with Yamaguchi et al (Arabidopsis Book, Feb. 17, 2014; 12: e0170). […]

CC(=O)N[C@@H](CCC(=O)O)C(=O)O [N-acetylglutamic acid]
fold induction at 400 µM: 2.3
